# Patent US9050341B2, “Methods of treating drug resistant and other tumors by administering 6,7-dialkoxy quinazoline derivatives” (NATCO PHARMA LIMITED, priority 2009, dated 2015)
# Tests used:
# [1] = Respiratory function, whole body plethysmograph; format: in vivo; conditions: conscious male Wistar rats, 75, 125 and 250 mg/kg oral, 3 hours
# Method: This study evaluated the effect of NRC-2694A monohydrochloride on respiratory function in conscious Wistar rats following administration of a single dose using a whole body plethysmograph. The study was conducted in accordance with “S7A Safety Pharmacology Studies for Human Pharmaceuticals, ICH” issued July 2001. The study used a parallel design with one vehicle and three test item treated groups. […] Male Wistar rats were placed in plethysmography chambers and baseline respiratory parameters were recorded for 30 minutes. Following drug administration respiratory parameters were recorded continuously for 3 hours.
# [2] = target: T1, RPS6KA3 (Kin.Dom.-1-N-terminal) (Homo sapiens, UniProt P51812); experiment: KinomeScan kinase profiling; format: binding
# T1 construct: RPS6KA3 (Kin.Dom.-1-N-terminal); host or cells: E. coli host derived from BL21, T7 phage lysate
# T1 sequence (P51812 68-327 limits assumed): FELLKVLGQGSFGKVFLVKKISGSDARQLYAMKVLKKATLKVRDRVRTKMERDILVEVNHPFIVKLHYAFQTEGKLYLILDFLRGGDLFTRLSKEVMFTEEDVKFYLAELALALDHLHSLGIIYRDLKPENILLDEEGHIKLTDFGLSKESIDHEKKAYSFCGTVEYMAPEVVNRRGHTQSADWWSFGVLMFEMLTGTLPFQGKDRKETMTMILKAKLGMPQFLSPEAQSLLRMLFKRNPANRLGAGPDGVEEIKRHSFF
# [3] = Functional observational battery (FOB); format: in vivo, Wistar rats
# Method: The study was conducted in accordance with “S7A Safety Pharmacology Studies for Human Pharmaceuticals, ICH” July 2001, and as per this study protocol. […] Rats that had been fasted for 16 to 18 hours (access to water was not interrupted) were dosed with the compound or water. The rats were administered the compound in an aqueous formulation at three levels, 75, 125 and 250 mg/kg b.wt, as a single oral dose by gavage. The control group received water. The rats were subjected to the FOB 60-120 min. after drug administration.
# Animals were subjected to the FOB one at a time except for the multiple activity cage where four animals were placed in four different cages simultaneously. Once complete, the animals were returned to their home cage and the cage placed back on the stand.
# The FOB can be employed to assess multiple neurobiological domains including neuromuscular (weakness, in coordination, gait and tremor), sensory (audition, vision and somatosensory), and autonomic (pupil response and salivation) functions. The measures of a neuro behavioral screening battery have been divided into specific functional domains. For example, Lacrimation, salivation, pupil response, palpebral closure, defecation and urination are measures of some aspects of the autonomic system. Similarly the neuro muscular domain can be assessed based on the gait/mobility score, landing foot splay, grip strength and righting reflex; sensorimotor domain based on response to tail pinch and click/touch/approach response; CNS excitability domain based on ease of removal and handling of the animal, clonic/tonic movements, arousal and vocalization; CNS activity domain based on home cage posture, palpebral closure, rearing and motor activity and finally the physiological domain is assessed based on the body weight, body temperature and piloerection.
# [4] = Cardiovascular parameters in telemetered dogs; format: in vivo, Beagle dogs; conditions: for cardiovascular parameters (blood pressure, pulse pressure, heart rate, QT and QTcf intervals): telemetered male Beagle dogs, 15, 30 and 60 mg/kg b.wt. oral
# Method: The study was conducted in accordance with ICH “S7A Safety Pharmacology Studies for Human Pharmaceuticals, Note for Guidance on Safety Pharmacology Studies for Human Pharmaceuticals, July 2001”. The doses tested were 0, 15, 30 and 60 mg/kg b.wt. given orally by gelatin capsule. Four male Beagle dogs, each implanted with a TL1IM2-D70-PCT transmitter (Data Sciences International, USA), were used for the study. During the study, the dogs were administered 4 oral treatments representing placebo and all test substance treatment groups with a three day (˜72 hour) wash-out period between each administration, using a Latin square cross-over design.
# On dosing days, the telemetered dogs were observed once before commencement of data collection, continuously through 2 hours post-dose remotely and ˜8 hours post-dose for changes in behaviour. Cardiovascular parameters (systolic, diastolic and mean blood pressure, pulse pressure and heart rate) were recorded continuously for ˜60 minutes before dosing and up to 24 hours after dosing. Systolic, diastolic and mean blood pressures, pulse pressure and heart rate were obtained from the femoral artery waveform. Electrocardiograms were recorded continuously for ˜60 minutes before dosing and up to 24 hours after dosing. Electrocardiograms were obtained from subcutaneously placed bio-potential leads in a Lead II configuration. Heart rate and QT intervals were determined from the ECG's.
# [5] = 30 day repeated dose toxicity in beagle dogs; format: in vivo
# Method: The methods followed were as per CPMP/SWP/1042/99 (July 2000) and ICH S3A (March (1995)) guidelines. Prior to the 30 day repeated dose study, a dose range finding study was conducted, which included single dose MTD study followed by a 10 day repeated dose study. […]. The route of dosing was oral, by gelatin capsule. Based on the results of the dose range finding study, doses for the 30 days study were selected.
# The 30 day repeated dose study employed 12 male and 12 female dogs (Marshall's Farm, China). The dogs were acclimatized for a minimum period of 2 weeks and randomly divided into four main groups (G1-G4), each group comprising of 3 dogs per sex. The animals were dosed orally with capsules of NRC-2694A for a period of 30 consecutive days at dose levels of 10 mg/kg b.wt/day (G2-low dose), 20 mg/kg b.wt/day (G3-mid dose) and 40 mg/kg b.wt/day (G4-high dose). […]. The control group (G1-0 mg/kg b. wt/day) animals were dosed by oral capsule with placebo.
# The study also tracked body weight (weekly), food consumption (daily), opthalmological status (start and end), hematological and biochemical analyses (start and end), toxicokinetics analysis of plasma (start and end). […]
# [6] = Acute oral toxicity (MTD) in Wistar rats; format: in vivo
# [7] = system: Salmonella typhimurium (TA 98, TA 100, TA 102, TA 1535 and TA 1537); experiment: Ames bacterial reverse mutation assay; conditions: five tester strains, with or without S9
# Method: The present study was conducted by the direct plate incorporation method with five tester strains of Salmonella typhimurium (TA 98, TA 100, TA 102, TA 1535 and TA 1537). […] Simultaneously, negative control cultures received DMSO and the respective positive controls received the mutagens 2-Amino anthracene, 2-Nitrofluorene, Sodium azide, 9-Aminoacridine and Mitomycin C (Sigma, St. Louis). In order to study the role of metabolic activation, cultures were incubated both with and without S9 mixture. The induction of Histidine positive colonies was computed and results were statistically treated for comparison.
structure (smiles),measurement,setting,value
"C#Cc1cccc(Nc2ncnc3cc(OC)c(OCCCN4CCOCC4)cc23)c1 [NRC-2694, N-(3-ethylnylphenyl)-7-methoxy-6-[3-(4-morpholinyl)propoxy]-4-quinazolinamine]","respiratory parameters: respiratory rate, tidal volume, minute volume, and Penh",[1],lacks toxicity against respiratory function
same,% Ctrl @ 10000 nM,[2],94 % Ctrl
same,neurotoxicity toward the central and peripheral nervous system,"[3]; Wistar rats, FOB",no evidence of neurotoxicity
same,"cardiovascular parameters (blood pressure, pulse pressure, heart rate, QT and QTcf intervals)",[4],lacks toxicity against cardiovascular function
same,toxicity compared with Erlotinib,[5]; beagle dogs,significantly less toxic than Erlotinib HCl
same,"MTD, mice compared with rats","[6]; rat, in vivo",the same in mice and rats
same,mutagenicity in the Ames test,[7],not mutagenic
same,induction of His revertant colonies,[7]; 0.0125-1.2500 mg/plate,lack of statistically significant induction
"C#Cc1cccc(Nc2ncnc3cc(OC)c(OCCCN4CCOCC4)cc23)c1.Cl [NRC-2694 monohydrochloride, N-(3-ethylnylphenyl)-7-methoxy-6-[3-(4-morpholinyl)propoxy]-4-quinazolinamine mono hydrochloride]","respiratory parameters: respiratory rate, tidal volume, minute volume, and Penh",[1],did not influence any of the observed parameters
same,adverse effects in the functional observational battery,"[3]; Wistar rats, 75, 125 and 250 mg/kg b.wt single oral dose",did not show any adverse effects
same,influence on the parameters of the FOB,"[3]; Wistar rats, 75, 125 and 250 mg/kg b.wt, 60-120 minutes post treatment",no influence on any of the parameters
same,no observed effect level,"[4]; cardiovascular parameters, male Beagle dogs, oral",60 mg/kg b.wt.
same,"cardiovascular parameters (blood pressure, pulse pressure, heart rate, QT and QTcf intervals)",[4],no significant negative effects
same,no observed adverse effect level (NOAEL),"[5]; beagle dogs, 30 days, orally by capsule",10 mg/kg b.wt/day
same,symptoms of toxicity,"[5]; dogs, low dose (G2) 10 mg/kg b.wt/day, 30 days",No symptoms of toxicity
same,maximum tolerated dose (MTD),"[6]; acute oral gavage, Wistar rats",1000 mg/kg body weight
same,gross pathological examination,[6]; rats,"did not reveal any lesions of pathological significance, except minimal uterus distension in two female rats"
same,"chromodacryoorhea, incidence","[6]; rats, G4 1000 mg/kg body wt.",10/10
same,"mild to severe lethargy, incidence","[6]; rats, G4 1000 mg/kg body wt.",10/10
same,"piloerection, incidence","[6]; rats, G4 1000 mg/kg body wt.",10/10
same,"ptosis, incidence","[6]; rats, G4 1000 mg/kg body wt.",4/10
same,"weakness, incidence","[6]; rats, G4 1000 mg/kg body wt.",1/10
same,body weight and percent body weight change,"[6]; rats, mid and high dose, days 7 and 14",Statistically significant reduction
same,toxic signs,"[6]; rats, oral gavage, 1000 mg/kg body weight (high dose)",marked toxic signs with reduction in body weight but devoid of any pathological lesions and mortality
same,major toxic signs or mortality,"[6]; rats, oral gavage, 250 (low dose) and 500 mg/kg body weight (mid dose)",did not produce any major toxic signs or mortality
same,mortality,"[6]; rats, oral, 250, 500 and 1000 mg/kg",No mortality
same,mutagenicity in the Ames test,[7],non-mutagenic
